PMC7565091, “Synthesis and Inhibitory Studies of Phosphonic Acid Analogues of Homophenylalanine and Phenylalanine towards Alanyl Aminopeptidases” (Biomolecules, 2020)
Like-named read-outs stand apart in the source and are kept apart here.

Assays:
[1] = target: T1, Recombinant human alanine aminopeptidase (hAPN, EC 3.4.11.2) (Homo sapiens, UniProt P15144); test: Fluorogenic (Ala-AMC) enzyme inhibition assay, hAPN; assay type: biochemical; settings: for Ki: racemic compounds, substrate Ala-AMC 50 µM, 50 mM Tris-HCl pH 7.00, 37 °C
T1 construct: purchased R&D System (Minneapolis, MN)
T1 sequence (P15144 whole entry): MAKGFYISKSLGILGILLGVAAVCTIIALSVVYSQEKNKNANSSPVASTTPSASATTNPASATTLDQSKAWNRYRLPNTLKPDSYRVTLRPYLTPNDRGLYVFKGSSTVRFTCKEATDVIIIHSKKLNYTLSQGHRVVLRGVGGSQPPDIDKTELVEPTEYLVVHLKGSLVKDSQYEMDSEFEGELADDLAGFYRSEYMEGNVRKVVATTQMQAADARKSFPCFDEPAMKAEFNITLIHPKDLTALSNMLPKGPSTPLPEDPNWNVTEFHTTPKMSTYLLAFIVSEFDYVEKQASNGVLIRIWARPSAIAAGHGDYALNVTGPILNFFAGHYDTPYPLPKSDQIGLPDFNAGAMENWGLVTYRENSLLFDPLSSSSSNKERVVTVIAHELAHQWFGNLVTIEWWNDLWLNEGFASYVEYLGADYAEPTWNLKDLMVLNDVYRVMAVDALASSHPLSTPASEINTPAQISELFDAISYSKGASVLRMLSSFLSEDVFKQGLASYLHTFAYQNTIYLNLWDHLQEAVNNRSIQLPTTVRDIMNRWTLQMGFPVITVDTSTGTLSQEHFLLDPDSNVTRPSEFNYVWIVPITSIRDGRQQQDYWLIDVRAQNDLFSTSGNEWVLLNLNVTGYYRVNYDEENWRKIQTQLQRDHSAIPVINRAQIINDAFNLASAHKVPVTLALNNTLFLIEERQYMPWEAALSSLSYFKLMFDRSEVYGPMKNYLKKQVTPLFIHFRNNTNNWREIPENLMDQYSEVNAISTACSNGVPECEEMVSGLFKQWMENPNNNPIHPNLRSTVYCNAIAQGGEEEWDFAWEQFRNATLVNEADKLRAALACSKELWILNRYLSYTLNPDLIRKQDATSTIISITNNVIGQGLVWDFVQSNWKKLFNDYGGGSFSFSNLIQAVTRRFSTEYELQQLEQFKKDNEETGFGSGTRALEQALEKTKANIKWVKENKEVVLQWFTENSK

[2] = target: T2, porcine kidney alanine aminopeptidase (pAPN, EC 3.4.11.2) (Sus scrofa, UniProt P15145); test: Fluorogenic (Ala-AMC) enzyme inhibition assay, pAPN; assay type: biochemical; settings: for Ki: racemic compounds, substrate Ala-AMC 100 µM, 50 mM Tris-HCl pH 7.20, 37 °C
T2 construct: porcine kidney alanine aminopeptidase (pAPN, EC 3.4.11.2); purchased Sigma Aldrich (Poznan, Poland); host or cells: porcine kidney (tissue-derived)
T2 sequence (P15145 1-963): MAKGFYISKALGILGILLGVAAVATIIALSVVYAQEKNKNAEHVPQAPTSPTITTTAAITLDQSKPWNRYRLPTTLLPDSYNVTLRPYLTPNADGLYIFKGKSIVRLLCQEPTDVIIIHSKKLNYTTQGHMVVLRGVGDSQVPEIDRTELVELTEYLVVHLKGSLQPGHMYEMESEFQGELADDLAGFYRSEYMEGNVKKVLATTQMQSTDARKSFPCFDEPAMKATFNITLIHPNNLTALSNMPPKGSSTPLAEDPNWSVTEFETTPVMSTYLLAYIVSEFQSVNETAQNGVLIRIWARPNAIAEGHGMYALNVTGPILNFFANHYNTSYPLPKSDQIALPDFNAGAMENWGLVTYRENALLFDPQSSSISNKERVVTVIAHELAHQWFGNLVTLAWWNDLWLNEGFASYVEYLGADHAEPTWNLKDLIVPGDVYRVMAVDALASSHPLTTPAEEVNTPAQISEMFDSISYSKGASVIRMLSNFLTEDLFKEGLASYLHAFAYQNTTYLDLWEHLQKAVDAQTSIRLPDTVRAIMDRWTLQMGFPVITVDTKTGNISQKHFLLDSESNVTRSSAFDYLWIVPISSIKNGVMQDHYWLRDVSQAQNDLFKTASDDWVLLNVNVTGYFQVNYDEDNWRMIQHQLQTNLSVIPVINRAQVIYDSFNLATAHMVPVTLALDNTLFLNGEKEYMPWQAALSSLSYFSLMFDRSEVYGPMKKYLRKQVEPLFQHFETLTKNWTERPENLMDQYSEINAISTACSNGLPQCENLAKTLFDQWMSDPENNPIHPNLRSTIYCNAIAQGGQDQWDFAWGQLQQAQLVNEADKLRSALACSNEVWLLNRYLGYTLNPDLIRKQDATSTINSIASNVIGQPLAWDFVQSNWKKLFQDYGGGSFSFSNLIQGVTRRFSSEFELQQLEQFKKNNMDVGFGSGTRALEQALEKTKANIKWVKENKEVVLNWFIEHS

[3] = target: T2, porcine kidney alanine aminopeptidase (pAPN, EC 3.4.11.2); settings: data from previous studies; cited from earlier work
[4] = target: T1, Recombinant human alanine aminopeptidase (hAPN, EC 3.4.11.2); settings: data from previous studies; cited from earlier work

Compound	Ki [1]	Ki [2]	melting point	further results
1-Amino-3-(2-Bromo-4-Fluorophenyl)ethylphosphonic Acid [Compound 17a]	14000 ± 400 nM	70 ± 6.6 µM	–	–
1-Amino-3-(4-Bromo-2-Fluorophenyl)ethylphosphonic Acid [Compound 17d]	7360 ± 210 nM	82.5 ± 2 µM	–	–
1-Amino-3-(4-Bromo-3-Fluorophenyl)ethylphosphonic Acid [Compound 17e]	670 ± 49 nM	4.23 ± 0.44 µM	–	–
Cc1cc(=O)oc2cc(NC(=O)[C@H](C)N)ccc12 [Ala-AMC, L-alanine-4-methylcoumaryl-7-amide, reference compound]	–	–	–	Km ([1]; substrate constant, determined analogously to the literature [23], read-out: Km towards Ala-AMC, hAPN): 73 µM; Km ([2]; substrate constant, determined analogously to the literature [23], read-out: Km towards Ala-AMC, pAPN): 90 µM
NC(CCc1ccccc1F)P(=O)(O)O (stereo not shown) [Compound 15b, 1-Amino-3-(2-Fluorophenyl)propylphosphonic Acid]	506 ± 38 nM	12.7 ± 0.8 µM	292 to 294 °C	–
NC(CCc1cccc(F)c1)P(=O)(O)O (stereo not shown) [Compound 15c, 1-Amino-3-(3-Fluorophenyl)propylphosphonic Acid]	129 ± 25 nM	2.63 ± 0.18 µM	292 to 294 °C	times better inhibitor than 15a ([1]; ratio of Ki values versus compound 15a, the text says both aminopeptidases, the factor matches hAPN): 5
NC(CCc1ccc(F)cc1)P(=O)(O)O (stereo not shown) [Compound 15d, 1-Amino-3-(4-Fluorophenyl)propylphosphonic Acid]	249 ± 25 nM	1.69 ± 0.81 µM	303 to 305 °C	–
NC(CCc1ccc(F)cc1F)P(=O)(O)O (stereo not shown) [Compound 15e, 1-Amino-3-(2,4-Difluorophenyl)propylphosphonic Acid]	661 ± 105 nM	1.71 ± 0.46 µM	304 to 306 °C	–
NC(CCc1ccc(F)c(F)c1)P(=O)(O)O (stereo not shown) [Compound 15f, 1-Amino-3-(3,4-Difluorophenyl)propylphosphonic Acid]	149 ± 11 nM	1.02 ± 0.3 µM	292 to 293 °C	–
NC(CCc1ccc(C(F)(F)F)cc1)P(=O)(O)O (stereo not shown) [Compound 15g, 1-Amino-3-(4-Trifluoromethylphenyl)propylphosphonic Acid]	347 ± 62 nM	0.976 ± 0.099 µM	295 to 296 °C	–
NC(CCc1ccccc1C(F)(F)F)P(=O)(O)O (stereo not shown) [Compound 15h, 1-Amino-3-(2-Trifluoromethylphenyl)propylphosphonic Acid]	804 ± 122 nM	7.49 ± 0.58 µM	244 to 246 °C	–
NC(Cc1cc(F)ccc1Br)P(=O)(O)O (stereo not shown) [Compound 17b]	41700 ± 7400 nM	379 ± 126 µM	–	–
NC(Cc1ccc(F)c(Br)c1)P(=O)(O)O (stereo not shown) [Compound 17c, 1-Amino-3-(3-Bromo-4-Fluorophenyl)ethylphosphonic Acid]	248 ± 24 nM	2.22 ± 0.14 µM	–	–
NC(Cc1ccc(Cl)cc1F)P(=O)(O)O (stereo not shown) [Compound 17o]	–	–	–	Ki [3]: 160 ± 11 µM; Ki [4]: 17800 ± 2090 nM
NC(Cc1ccc(Cl)c(F)c1)P(=O)(O)O (stereo not shown) [Compound 17s]	–	–	–	Ki [3]: 14.8 ± 0.9 µM; Ki [4]: 1010 ± 160 nM
NC(Cc1ccc(F)c(Cl)c1)P(=O)(O)O (stereo not shown) [Compound 17t]	–	–	–	Ki [3]: 6.93 ± 0.78 µM; Ki [4]: 542 ± 152 nM
